Legend:
Type in all cases: functional, cell-based
MCF7 = assay: Antiproliferative activity against human MCF7 cell line
HL-60 = assay: Antiproliferative activity against human HL60 cell line
HT-29 = assay: Antiproliferative activity against human HT29 cell line
HeLa = assay: Antiproliferative activity against human HeLa cell line
MRC5 = assay: Antiproliferative activity against human MRC5 cell line
K562 = assay: Antiproliferative activity against human K562 cell line

IC50 (MCF7) | IC50 (HL-60) | IC50 (HT-29) | IC50 (HeLa) | IC50 (K562) | Structure (SMILES) | IC50 (MRC5)
7.98 µM | – | – | – | – | NC(=O)c1csc([C@@H]2O[C@H](CO)[C@@H](O)[C@H]2O)n1 [TIAZOFURIN] | –
> 100 µM | 4.82 µM | 0.011 µM | 3.22 µM | 35.6 µM | CCCCCCCCCCCC(=O)N[C@@H]1[C@H](O)[C@@H](CO)O[C@H]1c1nc(C(N)=O)cs1 | > 100 µM
0.014 µM | > 100 µM | > 100 µM | 8.75 µM | > 100 µM | CCCCCC(=O)N[C@@H]1[C@H](O)[C@@H](CO)O[C@H]1c1nc(C(N)=O)cs1 | > 100 µM

From ChEMBL document CHEMBL1147017, “Synthesis and antiproliferative activity of two new tiazofurin analogues with 2'-amido functionalities” (Bioorg Med Chem Lett, 2006)
